13 compounds from patent publication US5428042A, “1-(2H-1-oxo-3,4-dihydronaphtyl-6-yl)-acetyl-piperidines as kappa agonists” (Dr Lo Zambeletti S.p.A., priority 1990, dated 1995) can be followed below.

Test [1] can be described thus: P-phenylquinone-induced abdominal writhing test in mice (analgesia, mouse writhing, graded). It is filed as in vivo, mouse (male Charles River, Swiss Strain). Particulars: sc, 20 min, 20 min pretreatment, p-phenylquinone 2 mg/Kg i.p., 8 min observation. The source says:
The pharmacological activity of the compounds of this invention is illustrated by the mouse writhing test, described as follows:
P-phenylquinone-induced abdominal writhing test in mice
The methodology employed is based on that described by Sigmund et al, Proc. Soc. Exptl. Biol. 95, 729/1957, modified by Milne and Twomey, Agents and Actions, 10, 31/1980.
Male Charles River mice (Swiss Strain), 25-36 g body weight, were used. Animals were allowed food and water ad libitum and were randomized into groups of 10 prior to experimentation. Test compounds were dissolved in either distilled water or distilled water plus 0.1M AMS, and administered by the subcutaneous route in a final volume of 10 ml/Kg. Control animals received 10 ml/Kg of the appropriate vehicle alone. Following a pretreatment period of 20 min., mice were injected intraperitoneally with p-phenylquinone, 2 mg/Kg at 37° C. in a final volume of 10 mg/kg. […] During this period the number of abdominal writhing responses per animal were recorded where writhing consists of an intermittent contraction of the abdomen associated with hind leg extension.
The degree of antinociceptive protection afforded by the test compound was determined as the mean number of writhing responses observed in the treated group (T) expressed as a percentage of the mean number of writhing responses in the control group (C) according to the following formula:
[1-(T/C]×100%=% graded protection
In general terms: Writhing tests count abdominal constrictions after an irritant is injected.

A further test concerns the target T1, kappa brain receptor (Cavia porcellus, UniProt P41144).
T1 construct: fresh guinea pig brain homogenates; from tissue; host or cells: guinea pig whole brain without cerebellum, fresh homogenate
The test is described as follows: Kappa brain receptor binding (binding to kappa sites). Particulars: guinea pig brain homogenate, tritiated kappa selective compound, 40 min, 25° C. As for the experimental part: Radio receptor binding to kappa site is performed on fresh guinea pig brain homogenates prepared according to Kosterlitz (1981).
Whole brain without cerebellum is homogenized in 50 mM Tris-buffer (pH 7.4 at 0° C.) and centrifuged at 49,000×g for 10 min.
The pellet is then resuspended in the same buffer, incubated at 37° C. for 45 min and centrifuged again.
1.9 ml of the final homogenate (1:100 in Tris pH 7.4, 0° C.) is used for the binding assay.
The binding to the kappa sites is performed using a tritiated kappa selective compound. Final homogenate with solutions of the cold ligand and of the labelled ligand is incubated for 40 min at 25° C., filtered through Whatman GF/C glass filter discs and washed. The radioactivity bound to the filters is counted by liquid scintillation spectrophotometry.
The non-specific binding is determined in the presence of 500 nM of the benzomorphan non-selective compound Mr 2266.
The equilibrium dissociation constant […] and the maximum binding capacity (Bmax) are determined from the analysis of saturation curves, while the inhibition constant (Ki) is determined from the analysis of competition experiments (Hill 1910; Scatchard 1949; Cheng and Prusoff 1973; Gillan et al 1980).

Counter-ions that a name gives are not always drawn.

T1 sequence (P41144 whole entry): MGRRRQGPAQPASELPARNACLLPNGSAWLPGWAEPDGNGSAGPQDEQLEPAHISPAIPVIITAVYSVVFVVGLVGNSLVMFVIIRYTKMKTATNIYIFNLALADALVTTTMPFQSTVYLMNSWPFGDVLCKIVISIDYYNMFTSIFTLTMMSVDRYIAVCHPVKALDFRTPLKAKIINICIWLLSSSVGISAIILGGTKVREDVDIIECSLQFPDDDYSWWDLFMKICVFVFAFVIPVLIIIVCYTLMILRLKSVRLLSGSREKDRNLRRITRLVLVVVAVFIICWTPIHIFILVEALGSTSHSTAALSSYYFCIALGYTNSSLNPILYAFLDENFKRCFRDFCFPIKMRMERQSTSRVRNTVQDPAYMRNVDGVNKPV

Regarding `CN(C)CC1CC(C)(C)CCN1C(=O)Cc1ccc2c(c1)CCCC2=O` (racemic) [Example 5, (±)-1-[1-oxo-3,4-dihydro-(2H)-napht-6-yl]acetyl-2-dimethylaminomethyl-4,4-dimethyl piperidine hydrochloride], in test [1], the ED50 (commonly the midpoint of the dose-response relation) was 0.377 mg/kg. Affinity at kappa brain receptor was put at a Ki of 65 nM.

Turning to `CN(C)CC1CCC(C)(C)CN1C(=O)Cc1ccc2c(c1)CCCC2=O` (racemic) [Example 6, (±)-1-[1-oxo-3,4-dihydro-(2H)-napht-6-yl]acetyl-2-dimethylaminomethyl-5,5-dimethyl piperidine hydrochloride], in test [1], the ED50 was 0.641 mg/kg. Further, the affinity at kappa brain receptor, expressed as Ki, was 88.7 nM. `CN(C)C[C@@H]1CCCCN1C(=O)Cc1ccc2c(c1)CCCC2=O` [Example 1, (2S)-1-[1-oxo-3,4-dihydro-(2H)-napht-6-yl]acetyl-2-dimethyl-aminomethyl piperidine hydrochloride]: the ED50 in test [1] was 0.154 mg/kg.

`CCN(C)C[C@@H]1CCCCN1C(=O)Cc1ccc2c(c1)CCCC2=O` [Example 2, (2S)-1-[1-oxo-3,4-dihydro-(2H)-napht-6-yl]acetyl-2-(N-methyl-N-ethyl)aminomethyl piperidine hydrochloride]: the ED50 in test [1] is 0.061 mg/kg. Consider `CCN(CC)C[C@@H]1CCCCN1C(=O)Cc1ccc2c(c1)CCCC2=O` [Example 3, (2S)-1-[1-oxo-3,4-dihydro-(2H)-napht-6-yl]acetyl-2-diethylaminomethyl piperidine hydrochloride], for which the ED50 in test [1] was 0.427 mg/kg. `CCCN(C)C[C@@H]1CCCCN1C(=O)Cc1ccc2c(c1)CCCC2=O` [Example 9, (2S)-1-[1-oxo-3,4-dihydro-(2H)-napht-6-yl]acetyl-2-(N-methyl-N-propyl)aminomethyl piperidine hydrochloride]: in test [1], the ED50 came to 0.221 mg/kg. On kappa brain receptor, the inhibition constant Ki (usually a measure of affinity in units of concentration, obtained from inhibition or displacement) lay within 10 to 50 nM.

With `CC(C)N(C)C[C@@H]1CCCCN1C(=O)Cc1ccc2c(c1)CCCC2=O` [Example 10, (2S)-1-[1-oxo-3,4-dihydro-(2H)-napht-6-yl]acetyl-2-(N-methyl-N-isopropyl)aminomethyl piperidine hydrochloride emihydrate], the ED50 in test [1] was determined as 0.078 mg/kg. On kappa brain receptor, this compound yielded a Ki of 2.87 nM. On the same counts, the results for `C=CCN(C)C[C@@H]1CCCCN1C(=O)Cc1ccc2c(c1)CCCC2=O` [Example 11, (2S)-1-[1-oxo-3,4-dihydro-(2H)-napht-6-yl]acetyl-2-(N-allyl-N-methyl)aminomethyl piperidine hydrochloride] are 0.13 mg/kg and ~50 nM. On to `CN(C[C@@H]1CCCCN1C(=O)Cc1ccc2c(c1)CCCC2=O)C1CC1` [Example 12, (2S)-1-[1-oxo-3,4-dihydro-(2H)-napht-6-yl]acetyl-2-(N-cyclopropyl-N-methyl)aminomethyl piperidine hydrochloride], for which the ED50 in test [1] stood at 0.141 mg/kg. Also, the Ki at kappa brain receptor amounted to 50 nM. Regarding `CN(C)C[C@@H]1CC(C)(C)CCN1C(=O)Cc1ccc2c(c1)CCCC2=O` [Example 15, (-)-1-[1-oxo-3,4-dihydro-(2H)-napht-6-yl]acetyl-2-dimethylaminomethyl-4,4-dimethylpiperidine D(-) tartrate], the ED50 in test [1] is 0.115 mg/kg. The Ki on kappa brain receptor worked out at 22.9 nM. Turning to `C#CCN(C)C[C@@H]1CCCCN1C(=O)Cc1ccc2c(c1)CCCC2=O` [Example 16, (2S)-1-[1-oxo-3,4-dihydro-(2H)-napht-6-yl]acetyl-2-(N-methyl-N-propargyl)aminomethyl piperidine hydrochloride], the ED50 in test [1] came to 0.056 mg/kg. Take `CN(C[C@@H]1CCCCN1C(=O)Cc1ccc2c(c1)CCCC2=O)C1CCC1` [Example 17, (2S)-1-[1-oxo-3,4-dihydro-(2H)-napht-6-yl]acetyl-2-(N-cyclobutyl-N-methyl)aminomethyl piperidine hydrochloride]: the ED50 in test [1] was 0.127 mg/kg. Same read-out and setting: as for `CN(C[C@@H]1CCCCN1C(=O)Cc1ccc2c(c1)CCCC2=O)C1CCCC1` [Example 18, (2S)-1-[1-oxo-3,4-dihydro-(2H)-napht-6-yl]acetyl-2-(N-cyclopentyl-N-methyl)aminomethyl piperidine hydrochloride .1/4 H2 O], the figure is 0.21 mg/kg.
